The values below come from US20030220312A1, “Epoxy-steroidal aldosterone antagonist and calcium channel blocker combination therapy for treatment of cardiovascular disorders” (G.D. Searle & Co., priority 2000, published 2003).

Data set [1] is described as follows: Thermogravimetry / DSC of eplerenone solvates (desolvation). As to conditions: eplerenone solvate of the named solvent; extrapolated from final solvent weight loss step, thermogravimetric analysis at 10° C./minute under nitrogen purge. The format is physicochemical. The procedure:
Each sample (1-10 mg) was placed in an unsealed aluminum pan and heated at 10° C./minute.
Thermogravimetric analysis of solvates was performed using a TA Instruments TGA 2950 thermogravimetric analyzer. Samples were placed in an unsealed aluminum pan under nitrogen purge. Starting temperature was 25° C. with the temperature increased at a rate of about 10° C./minute.

For data set [2], the system named is myocardial fibrosis in animal models. As to conditions: literature (Klug et al; Brilla et al); cited from earlier work.
For a further data set, the system named is hypertensive rats. Kind of data set: Assay C: Hypertensive Rat Model (renal artery clip). The format is in vivo. As to conditions: combination of calcium channel blocker and eplerenone versus either component alone, 12 to 24 weeks, expected. The text has this:
Assay “C”: Hypertensive Rat Model Male rats are made hypertensive by placing a silver clip with an aperture of 240 microns on the left renal artery, leaving the contralateral kidney untouched. Sham controls undergo the-same procedure but without attachment of the clip. One week prior to the surgery, animals to be made hypertensive are divided into separate groups and drug treatment is begun. […] The hearts are removed, weighed, measured and fixed in formalin. Collagen content of heart sections are evaluated using computerized image analysis of picrosirius stained sections.

Data set [3] concerns rats with myocardial infarction. Kind of data set: Assay D: Myocardial Infarction Rat Model (coronary ligation). The format is in vivo. As to conditions: combination of calcium channel blocker and eplerenone versus either component alone, six weeks, expected. On the procedure: Assay “D”: Myocardial Infarction Rat Model: Male rats are anesthetized and the heart is exteriorized following a left sided thoracotomy. The left anterior descending coronary artery is ligated with a suture. The thorax is closed and the animal recovers. Sham animals have the suture passed through without ligation. One week prior to the surgery, animals to undergo infarction are divided into separate groups and drug treatment is begun. Groups of animals are administered vehicle, calcium channel blocker alone, eplerenone alone, and combinations of calcium channel blocker and eplerenone, at various doses, as follow: After six weeks, systolic and diastolic blood pressure, left ventricular end diastolic pressure, left ventricular dP/dT, and heart rate are evaluated. The hearts are removed, weighed, measured and fixed in formalin. Collagen content of heart sections are evaluated using computerized image analysis of picrosirius stained sections.

For data set [4], the system named is patients with mild to moderate hypertension. The data set is described as follows: Example 19 clinical study: eplerenone versus placebo co-administered with a calcium-channel blocker. The format is in vivo, human.
Excerpt: This multicenter, randomized, double-blind, placebo-controlled, placebo run-in, parallel group trial involving a minimum of 120 randomized patients with hypertension (seated diastolic blood pressure [seDBP] ≧95 mmHg and <110 mmHg and seated systolic BP [seSBP] <180 mmHg while taking a CCB) will consist of a one- to two-week pretreatment screening period followed by a two- to four-week single-blind placebo run-in period and an 8-week double-blind treatment period. Eligible patients will be patients currently receiving a CCB as part of their antihypertensive medication. […] The dose will not be changed for patients with adequate BP control. […] If the dose has been increased at Week 2, the patient will be reassessed at Week 6. […] If BP is uncontrolled at Week 6 and the dose has been increased at Week 2 or Week 4, the patient must be withdrawn from the study. If symptomatic hypotension (i.e., lightheadedness, dizziness, or syncope associated with low BP) occurs at any time during the study, or if DBP is ≧110 mmHg or SBP is ≧180 mmHg at any time during the trial, the patient must be withdrawn. Patients will receive study medication for a total of 8 weeks.
Patients will return to the clinic for evaluations at Weeks 0 (baseline), 2, 4, 6, 8, and 9. Heart rate, BP, adverse events and concomitant medication will be assessed at each visit. Hematology and biochemistry evaluations and urinalysis for safety will be at Weeks 0, 8, and 9. Serum potassium levels will be determined at Weeks 0 (baseline), 2, 4, 6, 8, and 9. Plasma renin, serum aldosterone, and plasma cortisol will be determined at Weeks 0 and 8. A 12-lead electrocardiogram and physical examination will be done at screening and at Week 9.
The study will consist of a one- to two-week pretreatment screening period followed by a two- to four-week single-blind placebo run-in treatment period, prior to randomization to an eight-week double-blind treatment period.
Eligible patients will be either currently receiving a CCB alone, or receiving a CCB as part of their antihypertensive medication. […] The dose will not be changed for patients with adequate BP control. […] If the dose has been increased at Week 2, the patient will be reassessed at Week 6. The dose of study medication will not be changed for patients with adequate BP control. […] If BP is uncontrolled at Week 6 and the dose has been increased at Week 2 or Week 4, the patient must be withdrawn from the study. The dose of study medication will not be changed for patients with adequate BP control. If symptomatic hypotension (i.e., lightheadedness, dizziness, or syncope associated with low BP) occurs at any time during the study, or if DBP is ≧110 mmHg or SBP is ≧180 mmHg at any time during the study, the patient must be withdrawn. Patients will receive study medication for a total of eight weeks.
Patients will return to the clinic for evaluations at Weeks 0, 2, 4, 6, 8, and 9. Heart rate, BP, adverse events and concomitant medication will be assessed at each visit. Hematology and biochemistry evaluations and urinalysis for safety will be at Weeks 0, 8, and 9. Serum potassium levels will be determined at Weeks 0, 2, 4, 6, 8, and 9. Plasma renin, serum aldosterone, and plasma cortisol will be determined at Weeks 0 and 8. […]
BP evaluations will be analyzed at each visit using two-way analysis of covariance (ANCOVA) with the baseline measurement as the covariate and treatment and center as factors. […]
Data set [5] deals with patients with heart failure after an acute myocardial infarction. The data set is described as follows: Example 20 clinical study: eplerenone plus CCB in heart failure following acute myocardial infarction. The format is in vivo, human. As to conditions: expected. An excerpt:
Secondary endpoints include cardiovascular morbidity and mortality. […] (a) pulmonary edema (bilateral posttussive crackles extending at least 1⁄3 of the way up the lung fields in the absence of significant chronic pulmonary disease); or (b) chest x-ray showing pulmonary venous congestion with interstitial or alveolar edema; or (c) auscultatory evidence of a third heart sound (S3) with persistent tachycardia (>100 beats per minute). Eligible patients may be identified for inclusion at any time following emergency room evaluation and presumptive diagnosis of AMI with HF. […] Patients with implanted cardiac defibrillators are excluded. Patients will receive CCB therapy and may have received anticoagulants and antiplatelet agents, and may have received thrombolytics or emergency angioplasty. […] Serum potassium will be determined at 48 hours after initiation of treatment, at 1 and 5 weeks, at all other scheduled study visits, and within one week following any dose change. […] Vital signs (seated heart rate and BP), New York Heart Association (NYHA) functional class, adverse events, and selected concurrent medications will be recorded at every visit. […]

Data set [6] can be described thus: X-ray powder diffraction estimate of Form H content of dried solids. The format is physicochemical. As to conditions: for Estimated Weight Percent of Form H: dried solids from methyl ethyl ketone crystallization. The procedure:
The weight percent of the diepoxide or 11,12-epoxide in each sample is given in Tables X-6A and X-6B, respectively. A micro-flea magnetic stirrer was added to each scintillation vial along with 1 mL of methyl ethyl ketone. The vials were loosely capped and the solid dissolved by heating to reflux on a hot plate with magnetic stirring. Once the solids were dissolved, the solutions were allowed to cool to room temperature on the hot plate. Magnetic stirring was maintained during the cooling period. After the solutions reached room temperature, the solids were collected by vacuum filtration and immediately analyzed by X-ray powder diffraction (XPRD). The solids were then placed in a 100° C. oven and dried for one hour at ambient pressure. The dried solids were analyzed by XPRD for Form H content by monitoring the area of the Form H diffraction peak at about 12.1 degrees two theta. All XPRD diffraction patterns were recorded using an Inel Multipurpose Diffractometer.
Variables in the design of the experiments included cooling rate, starting material purity level, and end point temperature of crystallization.
High endpoint was defined as 45° C. and low endpoint was defined as 5° C. High cooling rate was defined as 3° C./minute cooling and low cooling rate was defined as 0.1° C./minute cooling.
After a background reading was taken with the FTIR, 250 mL of methyl ethyl ketone was charged to a 1 L Mettler RC-1, MP10 reactor and stirred at 100 rpm. […] Agitation was increased to 500 rpm to suspend solids and the batch temperature was increased to 80° C. […] Black or white specks generally were visible in the resulting transparent solution. The batch temperature was then ramp cooled at the desired rate to the desired endpoint, where it was maintained for one hour before being pulled into a transfer flask and filtered. […] reactor, transfer flask and cake were then washed with 120 mL methyl ethyl ketone. Once the wash was pulled through the cake, the stopped. About 10 grams of each wet cake were dried in a vacuum oven under nominal conditions of 75° C. with a light nitrogen bleed. […]

The nature of data set [7]: Form H content of the Form H seeding product by DSC. The format is physicochemical. As to conditions: cooling rate (0) 1.5° C./min, cooling endpoint (0) 25° C., 100.8% eplerenone seeded with Form H. The text has this:
The X-ray powder diffraction model, however, had not been tested for linearity beyond about 15% Form H. This experiment was the only one of the four experiments of this Example where Form H was created in the absence of the diepoxide.
(DSC measures the heat that a sample takes up or gives off during a temperature scan.)

Setting [8] is: CCB and eplerenone compared to CCB and placebo, Week 8.
The mark [9] stands for this setting: eplerenone 50-100 mg plus CCB versus CCB and placebo, eight weeks, hypertensive patients.

For the molecule Tetrahydrofuran, the “Desolvation Temperature” value in data set [1] is 136 °C.

As for `CC(=O)S[C@@H]1CC2=CC(=O)CC[C@]2(C)[C@H]2CC[C@@]3(C)[C@@H](CC[C@@]34CCC(=O)O4)[C@H]12` [spironolactone], the myocardial fibrosis entry in data set [2] is “prevents myocardial fibrosis”. In the case of Ethanol, the “Desolvation Temperature” value in data set [1] is 166 °C. As to Propylene Glycol, the “Desolvation Temperature” value in data set [1] was 188 °C. As for Isopropanol, in data set [1], the “Desolvation Temperature” value was 121 °C. On the same count and under the same terms, as for Isobutyl Acetate, the figure is 112 °C; as for Toluene, 83 °C. For `CCCCO` [n-Butanol], the “Desolvation Temperature” value in data set [1] was 103 °C.

As for Ethyl Propionate, the “Desolvation Temperature” value in data set [1] is 122 °C. The same measure, in the same setting: for Acetone the value was 117 °C; for Methyl Ethyl Ketone, 89 °C; for `CCCCCCCCO` [n-Octanol], 116 °C. Consider Methyl Acetate, for which, in data set [1], the “Desolvation Temperature” value is 103 °C. For the molecule t-Butyl Acetate, the “Desolvation Temperature” value in data set [1] was 109 °C.

In the case of Butyl Acetate, in data set [1], the “Desolvation Temperature” value was 108 °C. Propyl Acetate: the “Desolvation Temperature” value in data set [1] is 130 °C. Consider `COC(=O)[C@@H]1CC2=CC(=O)CC[C@]2(C)[C@@]23O[C@@H]2C[C@@]2(C)[C@@H](CC[C@@]24CCC(=O)O4)[C@H]13` [eplerenone, pregn-4-ene-7,21-dicarboxylic acid, 9,11-epoxy-17-hydroxy-3-oxo, γ-lactone, methyl ester, (7α,11α,17α)-], for which the cardiac performance result in the data set on hypertensive rats is “improvements in cardiac performance”. Moreover, the cardiac performance result in data set [3] is given as “improvements in cardiac performance”. In data set [4] (setting [8]), the “change in active renin levels” value is listed as “greater increase” and the “change in aldosterone levels” value is “greater increase”. Also, in data set [4] (setting [9]), the “change in mean diastolic blood pressure” value is on record as “greater for the dual therapy group, compared to monotherapy, but this difference did not reach statistical significance” and the “change in systolic blood pressure” value is recorded as “significant reduction”. For the same molecule, the serious adverse events result in data set [4] (eplerenone added to CCB therapy, eight weeks) was “no serious adverse events”. Besides, the “all cause mortality (primary end point)” value in data set [5] (eplerenone plus CCB relative to CCB alone) was “Improvement”. In addition, the “secondary end points (cardiovascular mortality, hospitalizations, atrial fibrillation, stroke, quality of life)” value in data set [5] (eplerenone plus CCB versus CCB alone) was “Beneficial effects”. The “Weight Percent Form H (XPRD)” value in data set [6] (cooling rate (+) 3° C./min, cooling endpoint (+) 45° C., impurity level (++) 61.1% purity eplerenone starting material, appears to be mixture of Form H and diepoxide) was 100^5 Weight Percent. In addition, in data set [6] (0% diepoxide in starting eplerenone mixture), the “Estimated Weight Percent of Form H” value was “None”. In addition, in data set [6] (1% diepoxide in starting eplerenone mixture), the “Estimated Weight Percent of Form H” value is given as “None”. The “Weight Percent Form H when analyzed by DSC” value in data set [7] is given as 100 Weight Percent.

On to Chloroform, for which the “Desolvation Temperature” value in data set [1] is 125 °C.
